Converted amounts (≈) assume the structure as drawn. “And” between values parts separate entries of the source, which are not always exact repeats. Identical values can stand only once. “Also recorded” adds a separate entry of the source. Like-named read-outs stand apart in the source and are kept apart here. Square brackets hold non-standard residues; d marks the D form. Peptide text beside a SMILES is read from it.
Columns and labels:
primary human PBMCs = assay: qPCR of IFNB1 and IL6 mRNA in ISD-stimulated PBMCs; type: cell-based; parameters: key to IFNB1 mRNA, qPCR, Fig. 2c / IL6 mRNA, qPCR, Fig. 2c / IFNB1 mRNA (Fig. S7f) / IL6 mRNA (Fig. S7f): relative mRNA level, target CT normalized to GAPDH CT; conditions: 10 μM
Description: The indicated cells were stimulated with either ISD (Sangon Biotech), HSV-1 (Provided by Dr. Zhengfan Jiang), HSV60mer (Sangon Biotech), SATE-cddA[70], 2’3’-cGAMP (Invivogen, Cat# tlrl-nacga23-1), ADU-S100 (MedChemExpress, Cat# HY-12885A) or Poly(I:C) (Invivogen, Cat# tlrl-pic) after XQ2 or XQ2B treatment. Total RNA was isolated from indicated cells that incubated with the drugs for indicated time or mice tissues by using NucleoZOL reagent (MACHEREY-NAGEL) according to the manufacturer’s instructions. The quantifications of mRNA levels were carried out by real-time PCR using a PerfectStart® Uni RT&qPCR Kit (TransGen Biotech) on the QuantStudio 5 qPCR machine (Applied Biosystems). Samples were carried out in triplicate and the target CT values were normalized to GAPDH CT values. Primers of qPCR used in this study can be found in Supplementary Table S2.

[1] = Cell viability (CCK-8), cytotoxicity; conditions: human, THP1 cells
Description: (§1) Cell viability was measured by cell counting kit-8 (TargetMol) according to the manufacturer’s instructions.
(§2) Supplementary Fig. 2. […]
(§3) (e-g) THP1 cells (e), L929 cells (f) and RAW264.7 cells (g) were exposed to the indicated doses of XQ2 for 48h, the cell viability was measured by CCK8 assay. Data are representative of three independent experiments in (a-g). (Data are presented as mean ± SD, n = 3 independent samples in (a-g), **p < 0.01, ***p < 0.001, ****p < 0.0001 using one-way ANOVA with Dunnett’s post hoc test).
(§4) Source data are provided as a Source Data file. […]
(§5) Relative viability(%) XQ2B
(§6) Supplementary Fig. 7. […] (a) THP1 cells were exposed to the indicated doses of XQ2 or XQ2B for 48h. The cell viability was measured by CCK8 assay. […]
(§7) Data are representative of three independent experiments with similar results in (e), or three independent experiments in (a -d, f, g) . (Data are presented as mean ± SD, n = 3 independent samples in (a-d, f, g), ns, not significant, **p < 0.01, ***p < 0.001, ****p < 0.0001 using one-way ANOV A with Dunnett’s post hoc test). Source data are provided as a Source Data file.

THP1 cells = assay: Cell viability (CCK-8), cytotoxicity; conditions: for Cell viability (Fig. S2e): THP1 (48h)
Description: as §1, §2, §3, §4, §5, §6, §7

L929 cells = assay: ISD-induced autophagy, LC3-II immunoblotting; type: cell-based, mouse; conditions: for LC3-II relative gray ratio (normalized to GAPDH), Fig. S3a: ISD +
Description: Total cell lysates were prepared in RIPA lysis buffer (Beyotime Biotechnology) supplemented with 1 mM PMSF and 1× protease inhibitor cocktail (Yeasen), and nuclear protein was extracted by nuclear protein extraction kit (Solarbio) in accordance with the manufacturer’s instructions. The samples were separated by SDS-PAGE and transferred to the PVDF membrane (Millipore). The membranes were incubated with the indicated primary antibodies at 4 °C overnight and then incubated with an HRP-conjugated anti-rabbit IgG antibody (Cell Signaling, Cat# 7074, 1:5000) or anti-mouse IgG antibody (Cell Signaling, Cat# 7076, 1:5000) at room temperature for 1 h. The signal was visualized by using the NcmECL Ultra kit (New Cell & Molecular Biotech) and then was exposed by using MiniChemi (SageCreation).
(§8) Supplementary Fig. 3. […] (a) L929 cells were pretreated for
(§9) 4 h with DMSO or the indicated doses of XQ2, followed by stimulation with dsDNA for 4 h, and then cell lysates were
(§10) (b) Jurkat cells were exposed to the indicated doses of XQ2, and then stimulated with
(§11) Data are representative of three independent experiments in (a, b). (Data are presented as mean ± SD, n = 3 independent
(§12) provided as a Source Data file.
(§13) (1 picture or pasted object on this page, not shown here)

Jurkat cells = system: Jurkat cells
Description: as §1, §8, §9, §10, §11, §12, §13

physchem = assay: physchem
Description: Supplementary Fig. 7. […] (a) THP1 cells were exposed to the indicated doses of XQ2 or XQ2B for 48h. The cell viability was measured by CCK8 assay. (b) The comparison of solubility of XQ2 and XQ2B. The maximum concentration of XQ2 or XQ2B dissolved in water was measured by a spectrophotometer at 280nm. […]
as §7

For `CC(C)C[C@@H]1NC(=O)[C@H](CCCNC(=N)N)NC(=O)[C@H](C(C)C)NC(=O)[C@@H]2CCCN2C(=O)[C@@H](Cc2ccccc2)NC(=O)[C@H](CC(C)C)NC(=O)[C@H](CCCNC(=N)N)NC(=O)[C@H](C(C)C)NC(=O)[C@H](C)NC(=O)[C@@H](Cc2ccccc2)NC1=O` [XQ2, Cyclo (LfAVRLfPVR)] (cyclo(L[dF]AVRL[dF]PVR)), the “ISD-induced IFNB1 and IL6 expression in PBMCs” value (primary human PBMCs) was “markedly suppressed the expression of IFNB1 and IL6; also recorded: significantly inhibit the activation of cGAS induced by ISD”, the “IFNB1 mRNA, qPCR, Fig. 2c” value (primary human PBMCs; PBMCs, ISD) was 362.804 and 380.938 and 448.513 and the “IL6 mRNA, qPCR, Fig. 2c” value (primary human PBMCs; PBMCs, ISD) was 261.548 and 423.427 and 399.836. It also gave a viability at 48 h, 0.16 µM ([1]; Cell viability (Fig. S2e), THP1 (48h), XQ2 0.16 μM) of 87.4%, a viability at 48 h, 0.31 µM ([1]; Cell viability (Fig. S2e), THP1 (48h), XQ2 0.31 μM) of 103% and a viability at 48 h, 0.63 µM ([1]; Cell viability (Fig. S2e), THP1 (48h), XQ2 0.63 μM) of 94.8%. It also gave a viability at 48 h, 1.25 µM ([1]; Cell viability (Fig. S2e), THP1 (48h), XQ2 1.25 μM) of 95.7%, a viability at 48 h, 2.5 µM ([1]; Cell viability (Fig. S2e), THP1 (48h), XQ2 2.5 μM) of 92.5% and a viability at 48 h, 5 µM ([1]; Cell viability (Fig. S2e), THP1 (48h), XQ2 5 μM) of 90.4%. It also gave a viability at 48 h, 10 µM ([1]; Cell viability (Fig. S2e), THP1 (48h), XQ2 10 μM) of 93.6%, a viability at 48 h, 0.3125 µM ([1]; Cell viability (Fig. S7a), XQ2 312.5 nM) of 103% and a viability at 48 h, 0.625 µM ([1]; Cell viability (Fig. S7a), XQ2 625 nM) of 94.8%. For the same compound, the viability at 48 h, 1.25 µM ([1]; Cell viability (Fig. S7a), XQ2 1250 nM) was 95.7%, the viability at 48 h, 2.5 µM ([1]; Cell viability (Fig. S7a), XQ2 2500 nM) was 92.5% and the viability at 48 h, 5 µM ([1]; Cell viability (Fig. S7a), XQ2 5000 nM) was 90.4%. For the same compound, the viability at 48 h, 10 µM ([1]; Cell viability (Fig. S7a), XQ2 10000 nM) was 93.6%, the viability at 48 h, 20 µM ([1]; Cell viability (Fig. S7a), XQ2 20000 nM) was 56.9% and the viability at 48 h, 40 µM ([1]; Cell viability (Fig. S7a), XQ2 40000 nM) was 4.01%. The viability at 48 h, 80 µM ([1]; Cell viability (Fig. S7a), XQ2 80000 nM) was 6.79%, the viability at 48 h, 160 µM ([1]; Cell viability (Fig. S7a), XQ2 160000 nM) was 6.84% and the viability at 48 h, 320 µM ([1]; Cell viability (Fig. S7a), XQ2 320000 nM) was 6.36%. For the same compound, the “Cell viability (Fig. S2e)” value (THP1 cells; XQ2 0.16 μM) was 87.186 and 98.2321, the “Cell viability (Fig. S2e)” value (THP1 cells; XQ2 0.31 μM) was 93.9161 and 92.7457 and the “Cell viability (Fig. S2e)” value (THP1 cells; XQ2 0.63 μM) was 102.329 and 90.4779. For the same compound, the “Cell viability (Fig. S2e)” value (THP1 cells; XQ2 1.25 μM) was 94.1356 and 101.451, the “Cell viability (Fig. S2e)” value (THP1 cells; XQ2 2.5 μM) was 93.4772 and 103.426 and the “Cell viability (Fig. S2e)” value (THP1 cells; XQ2 5 μM) was 89.1612 and 96.4765. The “Cell viability (Fig. S2e)” value (THP1 cells; XQ2 10 μM) was 102.841 and 97.9395, the IC50 (THP1 cells; read-out: IC50, cell viability (CCK8), Fig. S7a, THP1, 48h) was 24.3 ± 8.9 µM and the “ISD-induced autophagy, LC3-II formation” value (L929 cells) was “significantly reduced ISD-induced autophagy”. The “LC3-II relative gray ratio (normalized to GAPDH), Fig. S3a” value (L929 cells; XQ2 5 μM) was 1.62 and 1.737 and 1.498, the “LC3-II relative gray ratio (normalized to GAPDH), Fig. S3a” value (L929 cells; XQ2 10 μM) was 1.275 and 1.336 and 1.295 and the “ISD-induced cell death” value (Jurkat cells) was “markedly suppressed ISD-induced cell death”. The “solubility” value (physchem) was “low solubility at higher concentrations” and the solubility (physchem; Concentration (solubility, Fig. S7b)) was 860 µg/mL (≈ 717 µM).

— paper PMC10545747, “Development of cyclopeptide inhibitors of cGAS targeting protein-DNA interaction and phase separation” (Nature Communications, 2023)
